Measurements: paper PMC12699471 (RSC Advances, 2025)
“Also recorded” adds a separate entry of the source.

Assays:
Assay type in all cases: cell-based, human
MCF-7 cells [1] = assay: MTT cell viability assay, MCF-7 cells
MDA-MB-231 cells = assay: MTT cell viability assay, MDA-MB-231 cells; settings: for cell survival: MDA-MB-231 cells, 100 µM, 48 h, MTT
MCF-7 cells [2] = assay: Microscopic analysis of cell morphology, MCF-7 cells; settings: 48 h treatment; for cell morphology / cell death under the microscope: 10× magnification

Structure (SMILES)	IC50 (MCF-7 cells [1]; Homo sapiens, MCF7)	cell survival (MCF-7 cells [1]; MCF-7 cells, 100 µM, 48 h, MTT)	IC50 (MDA-MB-231 cells; Homo sapiens, MDA-MB-231)	cell survival (MDA-MB-231 cells)	breast cancer cell inhibitory activity as concluded from microscopy (MCF-7 cells [2])	cell morphology / cell death under the microscope (MCF-7 cells [2])
CCOC(=O)C1=C(COCc2cn(CCN3C(=O)C(=O)c4ccccc43)nn2)N=C2SC=CN2C1c1cccc(Cl)c1 (centres unmarked) [Compound 14a]	81.9 ± 2.26 µM	~52%	42.3 ± 0.83 µM	58%	highest breast cancer cell inhibitory activity	mostly dead
CCOC(=O)C1=C(COCc2cn(CCN3C(=O)C(=O)c4cc(Cl)ccc43)nn2)N=C2SC=CN2C1c1cccc(Cl)c1 (centres unmarked) [Compound 14c]	–	–	–	–	highest breast cancer cell inhibitory activity	significant changes in their morphology; also recorded: mostly dead
CCOC(=O)C1=C(COCc2cn(CCN3C(=O)C(=O)c4cc(F)ccc43)nn2)N=C2SC=CN2C1c1cccc(Cl)c1 (centres unmarked) [Compound 14d]	–	–	–	–	not showing breast cancer cell growth inhibition	significant changes in their morphology
CCOC(=O)C1=C(COCc2cn(C3OC(COC(C)=O)C(OC(C)=O)C(OC(C)=O)C3OC(C)=O)nn2)N=C2SC=CN2C1c1cccc(Cl)c1 (centres unmarked) [Compound 15]	–	–	–	–	highest breast cancer cell inhibitory activity	mostly dead
CC/C(=C(\c1ccccc1)c1ccc(OCCN(C)C)cc1)c1ccccc1 [Tamoxifen, tamoxifen, reference compound]	–	–	–	63%	–	significant changes in their morphology; also recorded: mostly dead
